Data from patent US12630529B2, “GCN2 modulator compounds” (ALESTA THERAPEUTICS BV, priority 2020, dated 2026).

Experiments:
[1] = tested on: CHOP (DDIT3) reporter; test: GCN2-induction of CHOP and apoptosis in 3T3 fibroblasts with CHOP (DDIT3) reporter construct; assay type: cell-based, murine; conditions: for GCN2 activation / GCN2-induced CHOP activation: murine 3T3 CHOP (mCherry) reporter fibroblasts, increasing concentrations, in the presence of halofuginone or histidinol; for apoptosis induced by halofuginone / late-stage apoptosis induced by histidinol: murine 3T3 WT cells; for apoptosis induced by halofuginone: co-treatment with halofuginone; for late-stage apoptosis induced by histidinol: co-treatment with histidinol
Procedure: The CHOP construct comprised the […] (UTR) of mouse DDIT3 mRNA fused to a sequence encoding the fluorescent protein mCherry.
Cells were seeded at 5,000 cells per well in flat bottom 96-well plates in 100 μL DMEM low glucose media without phenol red, and supplemented with 10% FBS and 2 mM glutamine. After 24 hours, the exemplary compounds, and either tunicamycin, halofuginone, or histidinol, were added together with 100 nM of fluorescent apoptosis stain (YO-PRO™-1 Iodide; Thermo Fisher) to detect apoptotic cells. Cells were placed in a live-cell imaging and analysis platform (IncuCyte ZOOM®; Essenbio) set up in a humidified incubator at 37° C. and the plates were scanned every 4 hours for up 120 hours, at 10× magnification, to determine cell confluence and cell death. Experiments were performed in duplicate with 3 images collected per well, and analyzed using live-cell imaging and analysis software (IncuCyte ZOOM® 2018A software; Essenbio).

[2] = target: T1, GCN2 (Mus musculus, UniProt Q9QZ05); test: GCN2 inhibition cell-based assay (P-GCN2 Western blot in Neuro 2a cells); conditions: amino acid deprived media (DMEM lacking L-cysteine and methionine), 3 hours
T1 construct: endogenous in cells; host or cells: Neuro 2a (N2a)

[3] = target: GCN2 (Homo sapiens, UniProt Q9P2K8); test: GCN2 activation induced by arginine starvation (Western blot); assay type: cell-based; design: endogenous in cells; host or cells: HT29 and HCT116; conditions: HT29 and HCT116 colorectal cancer cell lines, 24 hours
Procedure: Colorectal cancer cell lines HT29 and HCT116 were seeded at a concentration of 100×10^3 cells per well in 6 well plates, in SILAC DMEM Flex media supplemented with 10% fetal bovine serum, 1 g/L glucose, 2 mM glutamine, 800 μM lysine, and various concentrations of arginine in the absence or presence of Compound 1 and Compound 2 GCN2 inhibitors. Cells were cultured for 24 hours.
Following 24 hours of culture, expression of phosphorylated GCN2 (P-GCN2) and alpha-actinin loading control was assessed by Western blot. Briefly, cells were washed with cold PBS and dissolved in cell lysis buffer containing 1% Triton, supplemented with protease inhibitors and phosphatase inhibitors. All lysates were freshly prepared and normalized using a BCA protein assay before addition of LDS sample buffer and denaturation by boiling the samples for 5 minutes at 95° C. Proteins were separated on 4-12% Bis-Tris protein gels in MOPS SDS buffer and electrophoresis was performed (e.g., Novex NuPAGE® Gel Electrophoresis Systems; Invitrogen). Transfer of the protein samples was performed (e.g., using the Mini Trans-Blot Cell® system; Bio-Rad) with 0.45 μM pore Nitrocellulose/Filter paper sandwiches and transfer buffer at 350 mA for 90 minutes at 4° C. Membranes were blocked for 1 hour with 4% BSA in TBS-Tween at room temperature and incubated with 1:1,000 dilutions of anti-GCN2, phospho-GCN2, α-actinin1, and/or p21 (Waf/Cip1) antibodies overnight at 4° C. Afterwards, membranes were washed 3 times with TBS-Tween and incubated with HRP-conjugated secondary antibodies at 1:20,000 dilution for 1 hour at room temperature.

[4] = tested on: HT29 cells; test: Proliferation and apoptosis of colorectal cancer cells (live-cell imaging); assay type: cell-based; conditions: 10 μM, 64 μM arginine, up to 96 hours, vs untreated cells; for rate of apoptotic cell death: YO-PRO-1 uptake
Procedure: Proliferation and apoptosis of HT29 cells was determined in the presence of Compound 1 and Compound 2. Briefly, cells were seeded in 96-well flat bottom plates at 4,000 cells per well in 100 μL SILAC DMEM Flex media without phenol red, supplemented with 10% fetal bovine serum (FBS), 1 g/L glucose, 2 mM glutamine, 220 μM lysine, containing a physiological concentration of arginine (64 μM). After 24 hours, cells were treated with 10 μM vehicle control (Control; 0.1% DMSO), 10 μM Compound 1, or 10 μM Compound 2, together with 100 nM of fluorescent apoptosis stain (YO-PRO™-1 Iodide; Thermo Fisher) to detect apoptotic cells. Cells were placed in a live-cell imaging and analysis platform (IncuCyte ZOOM®; Essenbio) set up in a humidified incubator at 37° C. and the plates were scanned every 4 hours for up 96 hours, at 10× magnification to determine cell confluence and cell death. Experiments were performed in duplicate with 3 images collected per well and analyzed using live-cell imaging and analysis software (e.g., IncuCyte ZOOM® 2018A software; Essenbio).

Chain of GCN2 (Homo sapiens, UniProt Q9P2K8) (Q9P2K8 whole entry): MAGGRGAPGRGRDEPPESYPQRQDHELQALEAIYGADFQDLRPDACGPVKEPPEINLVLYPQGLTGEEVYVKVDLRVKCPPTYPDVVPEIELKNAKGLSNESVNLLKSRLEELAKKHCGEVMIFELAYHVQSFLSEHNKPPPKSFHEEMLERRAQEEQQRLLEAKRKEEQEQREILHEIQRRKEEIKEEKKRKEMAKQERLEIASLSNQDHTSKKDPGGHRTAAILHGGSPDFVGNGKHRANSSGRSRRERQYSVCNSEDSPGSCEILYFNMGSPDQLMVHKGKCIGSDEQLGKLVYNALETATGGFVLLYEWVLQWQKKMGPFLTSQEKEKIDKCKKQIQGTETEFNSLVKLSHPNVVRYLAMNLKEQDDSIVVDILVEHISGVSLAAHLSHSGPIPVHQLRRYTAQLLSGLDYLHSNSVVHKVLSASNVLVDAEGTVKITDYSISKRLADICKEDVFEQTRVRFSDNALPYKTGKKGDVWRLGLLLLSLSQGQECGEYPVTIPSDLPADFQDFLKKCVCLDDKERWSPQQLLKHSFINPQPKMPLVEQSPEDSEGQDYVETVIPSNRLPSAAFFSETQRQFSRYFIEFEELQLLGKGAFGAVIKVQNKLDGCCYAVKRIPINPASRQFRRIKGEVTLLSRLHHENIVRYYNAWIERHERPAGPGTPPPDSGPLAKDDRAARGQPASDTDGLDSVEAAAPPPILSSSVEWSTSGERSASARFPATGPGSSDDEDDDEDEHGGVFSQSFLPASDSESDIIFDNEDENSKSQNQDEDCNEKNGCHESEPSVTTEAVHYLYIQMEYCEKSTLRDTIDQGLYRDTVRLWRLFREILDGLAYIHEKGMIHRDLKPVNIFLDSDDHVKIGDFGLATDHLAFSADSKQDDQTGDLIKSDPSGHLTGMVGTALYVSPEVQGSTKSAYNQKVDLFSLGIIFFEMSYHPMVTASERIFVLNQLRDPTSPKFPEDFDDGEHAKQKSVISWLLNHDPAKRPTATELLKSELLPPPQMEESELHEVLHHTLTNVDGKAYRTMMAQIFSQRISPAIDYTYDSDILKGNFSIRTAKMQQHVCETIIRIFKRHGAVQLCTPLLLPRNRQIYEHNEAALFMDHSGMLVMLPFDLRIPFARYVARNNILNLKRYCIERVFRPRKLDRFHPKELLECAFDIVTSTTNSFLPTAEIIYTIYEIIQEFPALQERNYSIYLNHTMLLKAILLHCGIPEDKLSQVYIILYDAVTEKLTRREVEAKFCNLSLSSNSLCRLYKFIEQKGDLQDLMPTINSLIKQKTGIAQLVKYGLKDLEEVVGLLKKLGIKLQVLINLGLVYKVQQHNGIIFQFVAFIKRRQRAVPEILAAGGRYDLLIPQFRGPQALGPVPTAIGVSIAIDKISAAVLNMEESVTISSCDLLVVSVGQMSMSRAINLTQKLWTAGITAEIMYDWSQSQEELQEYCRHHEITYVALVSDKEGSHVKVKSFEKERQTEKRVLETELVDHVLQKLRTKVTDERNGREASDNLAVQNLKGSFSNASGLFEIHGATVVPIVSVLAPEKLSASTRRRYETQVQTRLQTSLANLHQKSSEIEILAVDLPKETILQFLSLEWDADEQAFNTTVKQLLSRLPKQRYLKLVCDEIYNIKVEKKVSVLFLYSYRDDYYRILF
T1 sequence (Q9QZ05 whole entry): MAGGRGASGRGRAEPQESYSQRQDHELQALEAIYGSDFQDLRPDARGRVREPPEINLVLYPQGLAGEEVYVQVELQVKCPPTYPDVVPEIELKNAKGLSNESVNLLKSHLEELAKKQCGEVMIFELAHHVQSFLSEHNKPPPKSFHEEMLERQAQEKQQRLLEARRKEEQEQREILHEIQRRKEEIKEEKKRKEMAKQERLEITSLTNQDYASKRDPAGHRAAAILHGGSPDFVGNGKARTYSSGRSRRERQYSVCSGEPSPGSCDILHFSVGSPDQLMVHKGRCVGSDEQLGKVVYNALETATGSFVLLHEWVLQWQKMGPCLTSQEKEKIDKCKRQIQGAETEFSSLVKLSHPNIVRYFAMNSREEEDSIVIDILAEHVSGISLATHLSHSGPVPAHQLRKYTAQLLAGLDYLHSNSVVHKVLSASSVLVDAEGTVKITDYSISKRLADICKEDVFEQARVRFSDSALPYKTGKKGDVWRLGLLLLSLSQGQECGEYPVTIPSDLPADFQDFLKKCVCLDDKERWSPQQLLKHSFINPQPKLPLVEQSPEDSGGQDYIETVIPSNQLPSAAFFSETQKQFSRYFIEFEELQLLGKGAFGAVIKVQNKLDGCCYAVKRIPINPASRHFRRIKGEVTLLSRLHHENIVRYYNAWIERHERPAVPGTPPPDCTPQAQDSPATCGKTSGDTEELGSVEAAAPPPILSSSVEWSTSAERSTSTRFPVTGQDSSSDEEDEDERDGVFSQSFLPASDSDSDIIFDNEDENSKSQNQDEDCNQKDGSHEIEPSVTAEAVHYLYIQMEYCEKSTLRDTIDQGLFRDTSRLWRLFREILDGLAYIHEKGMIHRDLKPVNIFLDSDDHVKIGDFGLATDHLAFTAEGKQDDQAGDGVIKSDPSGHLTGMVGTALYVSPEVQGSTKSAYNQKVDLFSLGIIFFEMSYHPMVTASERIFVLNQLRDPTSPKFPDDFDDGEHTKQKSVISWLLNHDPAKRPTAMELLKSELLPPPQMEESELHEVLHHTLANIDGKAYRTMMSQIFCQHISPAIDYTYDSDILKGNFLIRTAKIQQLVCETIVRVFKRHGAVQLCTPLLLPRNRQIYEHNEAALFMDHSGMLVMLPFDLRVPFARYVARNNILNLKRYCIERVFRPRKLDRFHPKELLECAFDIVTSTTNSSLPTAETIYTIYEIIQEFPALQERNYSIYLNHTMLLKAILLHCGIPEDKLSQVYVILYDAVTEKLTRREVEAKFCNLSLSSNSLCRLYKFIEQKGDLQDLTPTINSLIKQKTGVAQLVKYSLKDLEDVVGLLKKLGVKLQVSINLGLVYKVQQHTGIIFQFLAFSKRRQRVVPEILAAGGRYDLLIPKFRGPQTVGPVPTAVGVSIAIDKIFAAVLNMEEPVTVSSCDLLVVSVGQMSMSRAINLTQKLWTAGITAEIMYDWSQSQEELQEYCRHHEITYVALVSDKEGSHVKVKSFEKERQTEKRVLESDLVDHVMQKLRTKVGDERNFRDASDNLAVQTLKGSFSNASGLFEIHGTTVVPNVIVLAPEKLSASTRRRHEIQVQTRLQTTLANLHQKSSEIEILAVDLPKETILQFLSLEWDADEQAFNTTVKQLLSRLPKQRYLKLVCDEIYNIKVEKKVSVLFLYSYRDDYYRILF

| Compound | GCN2 activation / GCN2-induced CHOP activation [1] | apoptosis induced by halofuginone [1] | late-stage apoptosis induced by histidinol [1] | IC50 [2] [nM] | activation of GCN2 (P-GCN2 expression) upon arginine depletion [3] | p21 expression [3] | rate of apoptotic cell death [4] | cell density / confluence [4] |
| --- | --- | --- | --- | --- | --- | --- | --- | --- |
| COc1ncc(Cl)cc1S(=O)(=O)Nc1ccc(F)c(-c2ccc3nc(N)ncc3c2)c1F [Compound 1] | reduced GCN2 activation | effectively inhibited apoptosis | increased late-stage apoptosis | < 10 | prevented the activation of GCN2 upon arginine depletion | p21 expression is induced | increased rate of apoptotic cell death | grew less dense |
| Nc1ncc2cc(-c3c(F)ccc(NS(=O)(=O)c4cc(Cl)ccc4Cl)c3F)ccc2n1 [Compound 2] | reduced GCN2 activation | effectively inhibited apoptosis | increased late-stage apoptosis | < 10 | prevented the activation of GCN2 upon arginine depletion | p21 expression is induced | increased rate of apoptotic cell death | grew less dense |
